Assay results as given in US12508328B2, “Bio-activated reporters to visualize, in real time, specific gene therapy products” (Northwestern University, priority 2019, dated 2025).

Columns and labels:
β-galactosidase = biological target: T1, β-galactosidase (Escherichia coli, UniProt P00722); assay type: biochemical; settings: 25° C., TES buffer, 1 mM MgCl2, 150 mM NaCl; for Kcat: 420 nm; for Km: nitro-phenol absorbance 420 nm
T1 construct: purchased Sigma Aldrich
Description: Catalytic efficiencies for five substrates, 5a-c, ONPG, and PNPG were evaluated by UV-vis spectroscopy (Table 3). ONPG and PNPG are literature standards that were used to ensure the assay was performed adequately and to serve as benchmarks of activation kinetics in the absence of the GdIII chelate. […] Catalytic efficiency is directly related to the imaging window wherein activation to the r1, on state is competing with clearance.
Enzyme activation kinetics were determined by the method of initial rates for compounds 5a-c via the appearance of the nitrophenol byproduct of activation. The characteristic absorption was monitored at 420 nm. Concentrations of substrate used were 0, 0.05, 0.1, 0.12, 0.15, 0.3, 0.4, 0.5, 0.75, 1, and 2 mM. Each concentration was measured in triplicate and exact concentrations were measured by ICP-MS (see Table 2).

[1] = Relaxivity (1.4 T) in MOPS and MOPS/CO3^2−; assay type: physicochemical; settings: intermolecular series 5a-c, 37° C.
Description: While measurements of q indicate how well an agent can restrict water access to the GdIII center, the most important property for a bio-activated contrast agent is the change in relaxivity upon enzymatic cleavage (r1). To evaluate the signal change in the presence of CO32−, relaxivities of the intermolecular activated agents were measured in two different buffer conditions, the non-coordinating buffer MOPS and MOPS/CO32−.
T1 relaxation times were obtained for 5a-c (FIG. 13), and complexes 10a-d (FIG. 14), and 11 at 37° C. at 60 MHz (1.4 T) on a Bruker mq60 minispec spectrometer (Billerica, MA). Three 1 mM solutions of each complex were prepared in four different buffer conditions 1) 10 mm 3-(N-morpholino)propanesulfonic acid (MOPS), 100 mm NaCl, pH 7.4, 2) 10 mm MOPS, 24 mm NaHCO3, 100 mm NaCl, pH 7.4, 3) Dulbecco's Phosphate Buffer (DPBS) pH 7.3 Life Technologies, and 4) b-galactosidase enzyme assay buffer, 200 mm sodium phosphate, 100 mm bmercaptoethanol, 2 mm MgCl2, pH 7.3 (FIG. 15). Three sets of five serial dilutions (about 1 mm, 0.5 mm, 0.25 mm, 0.125 mm and 0.0625 mm) were prepared for each complex. T1 relaxation rates were measured using an inversion recovery pule sequence (t1_ir_mb) with a 10 ms first pulse separation, recycle delay and final pulse separation ≥5 T1. T1 relaxation rates were plotted as a function of GdIII concentrations as determined by ICP-MS, r1/r2 was obtained from linear fit of concentration vs. T1 as described in Equation (1).

[2] = Terbium(III) luminescence: determination of q; assay type: physicochemical; settings: for q (H2O): pure water; for τD2O: D2O; for τH2O: H2O
Description: The q number in the absence and presence of CO32− was determined using TbIII analogues (5a′, 5b′, 5c′, and 11′). Given the similarities in chemistry amongst the lanthanides, TbIII luminescence is a convenient and established method for determining the coordination environment in corresponding GdIII chelates. The narrow […] emission at 543 nm and the relatively long lived 0.4 ms excited state lifetime for Tb(H2O)x facilitates accurate assessment of the inner-coordination sphere, differentiating between coordination of OH, OD, NH, and ND oscillators. 38 Luminescent decay curves were fit to the empirically derived Horrock's equation (Eq. 2). It was expected that the ortho position would have the lowest q in the presence of CO32−, creating a “dark” state with the lowest relaxivity.
The number of water molecules directly coordinated to the lanthanide center (q), was determined for each of the TbIII analogues 5a′-c′ (see Table 1), 10a′-d′ (Table 2), and 11′ in MilliQ water and MOPS/carbonate buffer (10 mm MOPS, 24 mm NaHCO3, pH 7.4).
The monoexponential fluorescence decay of an ≈1 mm solution of each complex was determined using a Hitachi F4500 fluorometer (Schaumburg, IL). An excitation wavelength of 308 nm and an emission wavelength of […] were used, and 25 scans were acquired and averaged for each solution. The averaged data was fit with a monoexponential decay function, and the time constant (t) for each solution was determined in triplicate. The fluorescence decay curves of the complexes were measured in both H2O and D2O, and in both buffer and deuterated buffer, obtained by lyophilizing and re-suspending the buffer in D2O three times (FIG. 17A-E). The q values were calculated using the empirically derived Horrock's equation for Tb(III) (Eq. 2): […]

[3] = Horrock's equation for TbIII, MOPS/CO32- buffer pH 7.4
[4] = Tb(III) analogues, emission 543 nm, ambient temperature
[5] = deuterated MOPS/CO32- buffer pH 7.4
[6] = 10a′-d′, Horrock's equation, MOPS/CO3^2− buffer pH 7.4
[7] = 10a′-d′, MOPS/CO3^2− buffer pH 7.4
[8] = 10a′-d′, deuterated MOPS/CO3^2− buffer pH 7.4
[9] = Tb(III) analogues 10a′-d′, emission 543 nm

T1 sequence (P00722 2-1024): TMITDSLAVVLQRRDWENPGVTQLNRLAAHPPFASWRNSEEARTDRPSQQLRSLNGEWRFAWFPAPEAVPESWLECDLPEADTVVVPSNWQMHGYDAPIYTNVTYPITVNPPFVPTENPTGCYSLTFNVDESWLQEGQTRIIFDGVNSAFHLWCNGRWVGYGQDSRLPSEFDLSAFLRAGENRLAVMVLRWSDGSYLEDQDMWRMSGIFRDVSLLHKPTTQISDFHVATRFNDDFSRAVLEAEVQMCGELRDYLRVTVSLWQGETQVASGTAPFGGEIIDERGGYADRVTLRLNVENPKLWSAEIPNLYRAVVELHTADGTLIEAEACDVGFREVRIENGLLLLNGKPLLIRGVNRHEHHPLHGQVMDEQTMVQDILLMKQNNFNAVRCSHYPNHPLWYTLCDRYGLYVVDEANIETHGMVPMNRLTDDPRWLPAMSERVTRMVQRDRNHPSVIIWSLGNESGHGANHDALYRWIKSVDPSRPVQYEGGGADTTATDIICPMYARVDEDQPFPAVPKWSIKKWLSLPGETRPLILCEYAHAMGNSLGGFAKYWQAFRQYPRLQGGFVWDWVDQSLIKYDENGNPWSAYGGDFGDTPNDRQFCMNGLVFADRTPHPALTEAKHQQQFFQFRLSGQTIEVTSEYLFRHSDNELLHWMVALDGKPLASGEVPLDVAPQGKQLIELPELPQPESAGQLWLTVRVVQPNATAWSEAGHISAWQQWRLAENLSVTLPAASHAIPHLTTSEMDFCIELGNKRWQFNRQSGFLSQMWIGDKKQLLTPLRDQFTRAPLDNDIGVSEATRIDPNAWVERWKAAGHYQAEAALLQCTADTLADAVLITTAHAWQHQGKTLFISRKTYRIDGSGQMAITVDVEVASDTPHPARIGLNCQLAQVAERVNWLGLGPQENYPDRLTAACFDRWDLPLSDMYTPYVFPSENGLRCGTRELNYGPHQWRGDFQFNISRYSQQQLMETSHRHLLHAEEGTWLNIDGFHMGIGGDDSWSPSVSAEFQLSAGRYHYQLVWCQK

SMILES | Kcat (β-galactosidase) | Km (β-galactosidase) [µM] | q (buffer) [2, 6] | q (H2O) ([2]; 10a′-d′, Horrock's equation) | τHbuf [2, 7] | τDbuf [2, 8] | τD2O ([2]; Tb(III) analogues 10a′-d′) | τH2O [2, 9] | other results
O=C([O-])CN1CCN(CCNC(=O)OCc2cc([N+](=O)[O-])ccc2O[C@@H]2O[C@H](CO)[C@H](O)[C@H](O)[C@H]2O)CCN(CC(=O)[O-])CCN(CC(=O)[O-])CC1.[Gd+3] [5a, Gadolinium(III)-1-(2-(2-(1-(4,7,10-triscarboxymethyl-(1,4,7,10tetraazacyclododecyl)))ethylcarbamoyloxymethyl)-4-nitrophenyl)-β-D-galactopyranose] | 637 +/− 21.9 S−1 | 272 | – | – | – | – | – | – | Δr1 relative to the cleaved complex 11 (percent change in relaxivity, dark to bright) [1]: negative
O=C([O-])CN1CCN(CCNC(=O)OCc2ccc(O[C@@H]3O[C@H](CO)[C@H](O)[C@H](O)[C@H]3O)c([N+](=O)[O-])c2)CCN(CC(=O)[O-])CCN(CC(=O)[O-])CC1.[Tb+3] [5c′, Terbium(III)-1-(4-(2-(1-(4,7,10-triscarboxymethyl-(1,4,7,10tetraazacyclododecyl)))ethylcarbamoyloxymethyl)-2-nitrophenyl)-β-D-galactopyranose] | – | – | – | – | – | – | – | – | q (buffer) [2, 3]: 0; q (H2O) ([2]; Horrock's equation for TbIII): 0.7; τHbuf ([2]; MOPS/CO32- buffer pH 7.4): 1.0(2) ms; τD2O [2, 4]: 1.1(1) ms; τH2O [2, 4]: 0.8(9) ms; τDbuf [2, 5]: 1.0(7) ms
O=[N+]([O-])c1ccccc1O[C@@H]1O[C@H](CO)[C@H](O)[C@H](O)[C@H]1O [ONPG, ortho-nitrophyenyl-[…]-galactoside, reference compound] | 600 +/− 29.7 S−1 | 120 | – | – | – | – | – | – | –
O=C([O-])CN1CCN(CCNC(=O)OCc2cc([N+](=O)[O-])ccc2O[C@@H]2O[C@H](CO)[C@H](O)[C@H](O)[C@H]2O)CCN(CC(=O)[O-])CCN(CC(=O)[O-])CC1.[Tb+3] [5a′, Terbium(III)-1-(2-(2-(1-(4,7,10-triscarboxymethyl-(1,4,7,10tetraazacyclododecyl)))ethylcarbamoyloxymethyl)-4-nitrophenyl)-β-D-galactopyranose] | – | – | – | – | – | – | – | – | q (buffer) [2, 3]: 0.2; q (H2O) ([2]; Horrock's equation for TbIII): 1.1; τHbuf ([2]; MOPS/CO32- buffer pH 7.4): 1.7(6) ms; τD2O [2, 4]: 2.2(3) ms; τH2O [2, 4]: 1.2(8) ms; τDbuf [2, 5]: 2.2(0) ms
CCOC(=O)CCCNc1cc(COC(=O)NCCN2CCN(CC(=O)[O-])CCN(CC(=O)[O-])CCN(CC(=O)[O-])CC2)ccc1O[C@@H]1O[C@H](CO)[C@H](O)[C@H](O)[C@H]1O.[Tb+3] [10b′, Terbium(III)-1-(4-(2-(1-(4,7,10-triscarboxymethyl-(1,4,7,10tetraazacyclododecyl)))ethylcarbamoyloxymethyl)-2-((4-ethoxy-4-oxobutyl)amino)phenyl)-β-D-galactopyranose] | – | – | 0 | 0.5 | 1.8(9) ms | 1.8(8) ms | 2.2(6) ms | 1.6(3) ms | –
O=C([O-])CN1CCN(CCNC(=O)OCc2ccc(O[C@@H]3O[C@H](CO)[C@H](O)[C@H](O)[C@H]3O)c([N+](=O)[O-])c2)CCN(CC(=O)[O-])CCN(CC(=O)[O-])CC1.[Gd+3] [5c, Gadolinium(III)-1-(4-(2-(1-(4,7,10-triscarboxymethyl-(1,4,7,10tetraazacyclododecyl)))ethylcarbamoyloxymethyl)-2-nitrophenyl)-β-D-galactopyranose] | 765 +/− 37.8 S−1 | 129 | – | – | – | – | – | – | Δr1 relative to the cleaved complex 11 (percent change in relaxivity, dark to bright) [1]: negative
CCOC(=O)CCCCCCCNc1cc(COC(=O)NCCN2CCN(CC(=O)[O-])CCN(CC(=O)[O-])CCN(CC(=O)[O-])CC2)ccc1O[C@@H]1O[C@H](CO)[C@H](O)[C@H](O)[C@H]1O.[Tb+3] [10d′, Terbium(III)-1-(4-(2-(1-(4,7,10-triscarboxymethyl-(1,4,7,10tetraazacyclododecyl)))ethylcarbamoyloxymethyl)-2-((8-ethoxy-8-oxooctyl)amino)phenyl)-β-D-galactopyranose] | – | – | 0.1 | 0.1 | 1.9(7) ms | 2.0(2) ms | 2.2(6) ms | 1.9(3) ms | –
CCOC(=O)CNc1cc(COC(=O)NCCN2CCN(CC(=O)[O-])CCN(CC(=O)[O-])CCN(CC(=O)[O-])CC2)ccc1O[C@@H]1O[C@H](CO)[C@H](O)[C@H](O)[C@H]1O.[Tb+3] [10a′, Terbium(III)-1-(4-(2-(1-(4,7,10-triscarboxymethyl-(1,4,7,10tetraazacyclododecyl)))ethylcarbamoyloxymethyl)-2-((2-ethoxy-2-oxoethyl)amino)phenyl)-β-D-galactopyranose] | – | – | 0.3 | 1.3 | 1.7(2) ms | 2.1(8) ms | 2.1(0) ms | 1.1(4) ms | –
O=[N+]([O-])c1ccc(O[C@@H]2O[C@H](CO)[C@H](O)[C@H](O)[C@H]2O)cc1 [PNPG, para-nitrophyenyl-[…]-galactoside, reference compound] | 276 +/− 16.9 S−1 | 61 | – | – | – | – | – | – | –
O=C([O-])CN1CCN(CCNC(=O)OCc2ccc([N+](=O)[O-])c(O[C@@H]3O[C@H](CO)[C@H](O)[C@H](O)[C@H]3O)c2)CCN(CC(=O)[O-])CCN(CC(=O)[O-])CC1.[Tb+3] [5b′, Terbium(III)-1-(5-(2-(1-(4,7,10-triscarboxymethyl-(1,4,7,10tetraazacyclododecyl)))ethylcarbamoyloxymethyl)-2-nitrophenyl)-β-D-galactopyranose] | – | – | – | – | – | – | – | – | q (buffer) [2, 3]: 0; q (H2O) ([2]; Horrock's equation for TbIII): 0.4; τHbuf ([2]; MOPS/CO32- buffer pH 7.4): 1.4(2) ms; τD2O [2, 4]: 1.6(6) ms; τH2O [2, 4]: 1.3(0) ms; τDbuf [2, 5]: 1.5(4) ms
CCOC(=O)CCCCCNc1cc(COC(=O)NCCN2CCN(CC(=O)[O-])CCN(CC(=O)[O-])CCN(CC(=O)[O-])CC2)ccc1O[C@@H]1O[C@H](CO)[C@H](O)[C@H](O)[C@H]1O.[Tb+3] [10c′, Terbium(III)-1-(4-(2-(1-(4,7,10-triscarboxymethyl-(1,4,7,10tetraazacyclododecyl)))ethylcarbamoyloxymethyl)-2-((6-ethoxy-6-oxohexyl)amino)phenyl)-β-D-galactopyranose] | – | – | 0.1 | 0.1 | 1.9(3) ms | 2.2(6) ms | 2.2(9) ms | 1.8(9) ms | –
O=C([O-])CN1CCN(CCNC(=O)OCc2ccc([N+](=O)[O-])c(O[C@@H]3O[C@H](CO)[C@H](O)[C@H](O)[C@H]3O)c2)CCN(CC(=O)[O-])CCN(CC(=O)[O-])CC1.[Gd+3] [5b, Gadolinium(III)-1-(5-(2-(1-(4,7,10-triscarboxymethyl-(1,4,7,10tetraazacyclododecyl)))ethylcarbamoyloxymethyl)-2-nitrophenyl)-β-D-galactopyranose] | 679 +/− 135.8 S−1 | 791 | – | – | – | – | – | – | Δr1 relative to the cleaved complex 11 (percent change in relaxivity, dark to bright) [1]: 26%
